#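 Test compounds were applied to cells in 96-well plates for 48 hours at 5 doses. GI50 marks 50% less growth. TGI is the concentration that stops growth completely.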
# How the values were obtained:
# Assay in all cases: DTP human tumour cell line panel, 48 h
# SK-MEL-28 melanoma = tested on: SK-MEL-28 melanoma
# U251 CNS = tested on: U251 CNS
# HL-60(TB) leukemia = tested on: HL-60(TB) leukemia
# MOLT-4 leukemia = tested on: MOLT-4 leukemia
# LOX IMVI melanoma = tested on: LOX IMVI melanoma
# SW-620 colon = tested on: SW-620 colon
# MALME-3M melanoma = tested on: MALME-3M melanoma
# NCI-H226 lung = tested on: NCI-H226 lung
# NCI/ADR-RES ovarian = tested on: NCI/ADR-RES ovarian
# A549 NSCLC = tested on: A549 NSCLC
# IGROV1 ovarian = tested on: IGROV1 ovarian
# HS 578T breast = tested on: HS 578T breast
# SR leukemia = tested on: SR leukemia
# NCI-H460 lung = tested on: NCI-H460 lung
# 786-0 renal = tested on: 786-0 renal
# BT-549 breast = tested on: BT-549 breast
# SK-MEL-2 melanoma = tested on: SK-MEL-2 melanoma
# M14 melanoma = tested on: M14 melanoma
# SF-268 CNS = tested on: SF-268 CNS
# UO-31 renal = tested on: UO-31 renal
# SNB-75 CNS = tested on: SNB-75 CNS
# UACC-62 melanoma = tested on: UACC-62 melanoma
# CCRF-CEM leukemia = tested on: CCRF-CEM leukemia
# HT29 colon = tested on: HT29 colon
# NCI-H23 lung = tested on: NCI-H23 lung
# OVCAR-8 ovarian = tested on: OVCAR-8 ovarian
# OVCAR-3 ovarian = tested on: OVCAR-3 ovarian
# MDA-MB-231 breast = tested on: MDA-MB-231 breast
# MDA-MB-435 = tested on: MDA-MB-435
# EKVX NSCLC = tested on: EKVX NSCLC
# SN12C renal = tested on: SN12C renal
# KM12 colon = tested on: KM12 colon
# RPMI-8226 leukemia = tested on: RPMI-8226 leukemia
# OVCAR-4 ovarian = tested on: OVCAR-4 ovarian
# SK-OV-3 ovarian = tested on: SK-OV-3 ovarian
# SF-295 CNS = tested on: SF-295 CNS
# HOP-62 NSCLC = tested on: HOP-62 NSCLC
# SF-539 CNS = tested on: SF-539 CNS
# T-47D breast = tested on: T-47D breast
# SNB-19 CNS = tested on: SNB-19 CNS
# SK-MEL-5 melanoma = tested on: SK-MEL-5 melanoma
# HCT-15 colon = tested on: HCT-15 colon
# ACHN renal = tested on: ACHN renal
# COLO 205 colon = tested on: COLO 205 colon
# TK-10 renal = tested on: TK-10 renal
# OVCAR-5 ovarian = tested on: OVCAR-5 ovarian
# CAKI-1 renal = tested on: CAKI-1 renal
# NCI-H522 lung = tested on: NCI-H522 lung
# HOP-92 NSCLC = tested on: HOP-92 NSCLC
# RXF 393 renal = tested on: RXF 393 renal
# K-562 leukemia = tested on: K-562 leukemia
# PC-3 prostate = tested on: PC-3 prostate
# DU-145 prostate = tested on: DU-145 prostate
# HCC-2998 colon = tested on: HCC-2998 colon
# HCT-116 colon = tested on: HCT-116 colon
# UACC-257 melanoma = tested on: UACC-257 melanoma
compound,measurement,setting,value
COc1ccc(C(=S)N(C)NC(=O)CC(=O)NN(C)C(=S)c2ccc(OC)cc2)cc1,GI50,SK-MEL-28 melanoma,42.6 µM
same,TGI,SK-MEL-28 melanoma,> 100 µM
same,GI50,U251 CNS,45.8 µM
same,TGI,U251 CNS,> 100 µM
same,GI50,HL-60(TB) leukemia,> 100 µM
same,TGI,HL-60(TB) leukemia,> 100 µM
same,GI50,MOLT-4 leukemia,> 100 µM
same,TGI,MOLT-4 leukemia,> 100 µM
same,GI50,LOX IMVI melanoma,28.9 µM
same,TGI,LOX IMVI melanoma,> 100 µM
same,GI50,SW-620 colon,33.3 µM
same,TGI,SW-620 colon,> 100 µM
same,GI50,MALME-3M melanoma,52.3 µM
same,TGI,MALME-3M melanoma,> 100 µM
same,GI50,NCI-H226 lung,49.8 µM
same,TGI,NCI-H226 lung,> 100 µM
same,GI50,NCI/ADR-RES ovarian,29.1 µM
same,TGI,NCI/ADR-RES ovarian,> 100 µM
same,GI50,A549 NSCLC,24.5 µM
same,TGI,A549 NSCLC,> 100 µM
same,GI50,IGROV1 ovarian,54.4 µM
same,TGI,IGROV1 ovarian,> 100 µM
same,GI50,HS 578T breast,24.4 µM
same,TGI,HS 578T breast,82.6 µM
same,GI50,SR leukemia,> 100 µM
same,TGI,SR leukemia,> 100 µM
same,GI50,NCI-H460 lung,18.1 µM
same,TGI,NCI-H460 lung,> 100 µM
same,GI50,786-0 renal,58.5 µM
same,TGI,786-0 renal,> 100 µM
same,GI50,BT-549 breast,50.3 µM
same,TGI,BT-549 breast,> 100 µM
same,GI50,SK-MEL-2 melanoma,79.6 µM
same,TGI,SK-MEL-2 melanoma,> 100 µM
same,GI50,M14 melanoma,33.5 µM
same,TGI,M14 melanoma,> 100 µM
same,GI50,SF-268 CNS,43.2 µM
same,TGI,SF-268 CNS,> 100 µM
same,GI50,UO-31 renal,24.9 µM
same,TGI,UO-31 renal,> 100 µM
same,GI50,SNB-75 CNS,> 100 µM
same,TGI,SNB-75 CNS,> 100 µM
same,GI50,UACC-62 melanoma,37 µM
same,TGI,UACC-62 melanoma,> 100 µM
same,GI50,CCRF-CEM leukemia,23.4 µM
same,TGI,CCRF-CEM leukemia,> 100 µM
same,GI50,HT29 colon,39.1 µM
same,TGI,HT29 colon,> 100 µM
same,GI50,NCI-H23 lung,46.6 µM
same,TGI,NCI-H23 lung,> 100 µM
same,GI50,OVCAR-8 ovarian,38.9 µM
same,TGI,OVCAR-8 ovarian,> 100 µM
same,GI50,OVCAR-3 ovarian,36.5 µM
same,TGI,OVCAR-3 ovarian,> 100 µM
same,GI50,MDA-MB-231 breast,> 100 µM
same,TGI,MDA-MB-231 breast,> 100 µM
same,GI50,MDA-MB-435,59.9 µM
same,TGI,MDA-MB-435,> 100 µM
same,GI50,EKVX NSCLC,32 µM
same,TGI,EKVX NSCLC,> 100 µM
same,GI50,SN12C renal,98 µM
same,TGI,SN12C renal,> 100 µM
same,GI50,KM12 colon,62.7 µM
same,TGI,KM12 colon,> 100 µM
same,GI50,RPMI-8226 leukemia,0.0119 µM
same,TGI,RPMI-8226 leukemia,> 100 µM
same,GI50,OVCAR-4 ovarian,31.7 µM
same,TGI,OVCAR-4 ovarian,> 100 µM
same,GI50,SK-OV-3 ovarian,> 100 µM
same,TGI,SK-OV-3 ovarian,> 100 µM
same,GI50,SF-295 CNS,1.63 µM
same,TGI,SF-295 CNS,39 µM
same,GI50,HOP-62 NSCLC,> 100 µM
same,TGI,HOP-62 NSCLC,> 100 µM
same,GI50,SF-539 CNS,51.9 µM
same,TGI,SF-539 CNS,> 100 µM
same,GI50,T-47D breast,58.6 µM
same,TGI,T-47D breast,> 100 µM
same,GI50,SNB-19 CNS,> 100 µM
same,TGI,SNB-19 CNS,> 100 µM
same,GI50,SK-MEL-5 melanoma,36.2 µM
same,TGI,SK-MEL-5 melanoma,> 100 µM
same,GI50,HCT-15 colon,17.6 µM
same,TGI,HCT-15 colon,> 100 µM
same,GI50,ACHN renal,50.7 µM
same,TGI,ACHN renal,> 100 µM
same,GI50,COLO 205 colon,12.8 µM
same,TGI,COLO 205 colon,70.8 µM
same,GI50,TK-10 renal,67 µM
same,TGI,TK-10 renal,> 100 µM
same,GI50,OVCAR-5 ovarian,76.3 µM
same,TGI,OVCAR-5 ovarian,> 100 µM
same,GI50,CAKI-1 renal,31.8 µM
same,TGI,CAKI-1 renal,> 100 µM
same,GI50,NCI-H522 lung,45.9 µM
same,TGI,NCI-H522 lung,> 100 µM
same,GI50,HOP-92 NSCLC,0.283 µM
same,TGI,HOP-92 NSCLC,> 100 µM
same,GI50,RXF 393 renal,40.4 µM
same,TGI,RXF 393 renal,92.3 µM
same,GI50,K-562 leukemia,59.4 µM
same,TGI,K-562 leukemia,> 100 µM
same,GI50,PC-3 prostate,26.1 µM
same,TGI,PC-3 prostate,> 100 µM
same,GI50,DU-145 prostate,46.9 µM
same,TGI,DU-145 prostate,> 100 µM
COC(=O)/C=C1/SC(=Nc2ccc(F)cc2)N(CCc2c[nH]c3ccc(O)cc23)C1=O,GI50,SK-MEL-28 melanoma,7.34 µM
same,TGI,SK-MEL-28 melanoma,> 100 µM
same,GI50,U251 CNS,4.32 µM
same,TGI,U251 CNS,27.3 µM
same,GI50,SW-620 colon,> 100 µM
same,TGI,SW-620 colon,> 100 µM
same,GI50,HCC-2998 colon,> 100 µM
same,TGI,HCC-2998 colon,> 100 µM
same,GI50,MALME-3M melanoma,12.9 µM
same,TGI,MALME-3M melanoma,> 100 µM
same,GI50,NCI-H226 lung,4.17 µM
same,TGI,NCI-H226 lung,47.4 µM
same,GI50,NCI/ADR-RES ovarian,4.69 µM
same,TGI,NCI/ADR-RES ovarian,> 100 µM
same,GI50,A549 NSCLC,41.2 µM
same,TGI,A549 NSCLC,> 100 µM
same,GI50,IGROV1 ovarian,5.79 µM
same,TGI,IGROV1 ovarian,> 100 µM
same,GI50,HS 578T breast,4.28 µM
same,TGI,HS 578T breast,35.7 µM
same,GI50,SR leukemia,2.08 µM
same,TGI,SR leukemia,> 100 µM
same,GI50,NCI-H460 lung,4.71 µM
same,TGI,NCI-H460 lung,> 100 µM
same,GI50,786-0 renal,6.85 µM
same,TGI,786-0 renal,40.1 µM
same,GI50,BT-549 breast,3.75 µM
same,TGI,BT-549 breast,38.4 µM
same,GI50,SK-MEL-2 melanoma,2.76 µM
same,TGI,SK-MEL-2 melanoma,9.06 µM
same,GI50,SF-268 CNS,5.96 µM
same,TGI,SF-268 CNS,42.7 µM
same,GI50,UO-31 renal,7.07 µM
same,TGI,UO-31 renal,> 100 µM
same,GI50,SNB-75 CNS,4.01 µM
same,TGI,SNB-75 CNS,18.3 µM
same,GI50,UACC-62 melanoma,4.75 µM
same,TGI,UACC-62 melanoma,27.7 µM
same,GI50,HCT-116 colon,4.89 µM
same,TGI,HCT-116 colon,> 100 µM
same,GI50,NCI-H23 lung,7.49 µM
same,TGI,NCI-H23 lung,> 100 µM
same,GI50,OVCAR-8 ovarian,4.45 µM
same,TGI,OVCAR-8 ovarian,67.5 µM
same,GI50,OVCAR-3 ovarian,4.41 µM
same,TGI,OVCAR-3 ovarian,> 100 µM
same,GI50,MDA-MB-231 breast,14.8 µM
same,TGI,MDA-MB-231 breast,> 100 µM
same,GI50,MDA-MB-435,3.79 µM
same,TGI,MDA-MB-435,> 100 µM
same,GI50,EKVX NSCLC,20.7 µM
same,TGI,EKVX NSCLC,> 100 µM
same,GI50,SN12C renal,8.44 µM
same,TGI,SN12C renal,> 100 µM
same,GI50,KM12 colon,5.56 µM
same,TGI,KM12 colon,> 100 µM
same,GI50,UACC-257 melanoma,9.82 µM
same,TGI,UACC-257 melanoma,> 100 µM
same,GI50,RPMI-8226 leukemia,3.01 µM
same,TGI,RPMI-8226 leukemia,> 100 µM
same,GI50,OVCAR-4 ovarian,3.37 µM
same,TGI,OVCAR-4 ovarian,22.7 µM
same,GI50,SK-OV-3 ovarian,24.4 µM
same,TGI,SK-OV-3 ovarian,> 100 µM
same,GI50,SF-295 CNS,12 µM
same,TGI,SF-295 CNS,41.3 µM
same,GI50,HOP-62 NSCLC,3.83 µM
same,TGI,HOP-62 NSCLC,19.7 µM
same,GI50,SF-539 CNS,6.42 µM
same,TGI,SF-539 CNS,26.1 µM
same,GI50,T-47D breast,4.4 µM
same,TGI,T-47D breast,> 100 µM
same,GI50,SNB-19 CNS,9.28 µM
same,TGI,SNB-19 CNS,51.9 µM
same,GI50,SK-MEL-5 melanoma,11.1 µM
same,TGI,SK-MEL-5 melanoma,77.3 µM
same,GI50,ACHN renal,7.29 µM
same,TGI,ACHN renal,> 100 µM
same,GI50,COLO 205 colon,> 100 µM
same,TGI,COLO 205 colon,> 100 µM
same,GI50,TK-10 renal,14 µM
same,TGI,TK-10 renal,58.7 µM
same,GI50,OVCAR-5 ovarian,> 100 µM
same,TGI,OVCAR-5 ovarian,> 100 µM
same,GI50,CAKI-1 renal,24.9 µM
same,TGI,CAKI-1 renal,> 100 µM
same,GI50,NCI-H522 lung,3.85 µM
same,TGI,NCI-H522 lung,> 100 µM
same,GI50,HOP-92 NSCLC,6.21 µM
same,TGI,HOP-92 NSCLC,29.6 µM
same,GI50,RXF 393 renal,2.23 µM
same,TGI,RXF 393 renal,8.98 µM
same,GI50,K-562 leukemia,> 100 µM
same,TGI,K-562 leukemia,> 100 µM
same,GI50,PC-3 prostate,7.05 µM
same,TGI,PC-3 prostate,> 100 µM
same,GI50,DU-145 prostate,5.92 µM
same,TGI,DU-145 prostate,> 100 µM
